Among the data in PubChem BioAssay (NCI) are GI50 and TGI values, retold here.

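Briefly, cells in 96-well plates were exposed to five compound concentrations for 48 h, and endpoints were estimated by linear interpolation. The concentration for 50% growth inhibition is given as GI50. TGI is the concentration that stops growth completely.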

Among the test systems are MDA-MB-435; DU-145 prostate; BT-549 breast; T-47D breast; MDA-MB-231 breast.
Test in all cases: NCI-60 cell line screen, 48 h

As to `CN(C)CC(C(=O)c1ccccc1)c1ccccc1` (centres undefined), the GI50 was 1.9 µM in the experiment on MDA-MB-435; 1.34 µM in the experiment on DU-145 prostate; 1.87 µM with BT-549 breast; 2.03 µM with T-47D breast; 2.5 µM in the experiment with MDA-MB-231 breast. The TGI in the experiment with MDA-MB-435 amounted to 7.38 µM; with DU-145 prostate, 3.15 µM; with BT-549 breast, 4.39 µM; with T-47D breast, 5.73 µM; in the experiment on MDA-MB-231 breast, 10.1 µM.
For the compound `COc1cc(/C=C/C(=O)C(=Cc2ccc(F)c(F)c2)C(=O)/C=C/c2ccc(O)c(OC)c2)ccc1O`, the GI50 in the experiment with MDA-MB-435 is 2.93 µM; in the experiment with DU-145 prostate, 2.1 µM; in the experiment on BT-549 breast it was 2.68 µM; in the experiment on T-47D breast, 2.31 µM; with MDA-MB-231 breast, 3.48 µM. Further, the TGI in the experiment with MDA-MB-435 is 10.2 µM; in the experiment on DU-145 prostate, 5.27 µM; with BT-549 breast, 7.13 µM; in the experiment with T-47D breast it was 7.7 µM; in the experiment on MDA-MB-231 breast it was 16.7 µM.
Turning to `O=C1NC(=NCc2cccs2)SC1Cc1ccc2ncccc2c1` (centres undefined), the GI50 in the experiment with MDA-MB-435 was 7.21 µM; in the experiment with DU-145 prostate it was greater than 25 µM; in the experiment with BT-549 breast, 20.5 µM; in the experiment with T-47D breast, 24.9 µM; with MDA-MB-231 breast, greater than 25 µM. The TGI in the experiment on MDA-MB-435, with DU-145 prostate, in the experiment with BT-549 breast, in the experiment with T-47D breast and with MDA-MB-231 breast was greater than 25 µM in each case.
As to `CC/C(=N\Nc1nc2ccccc2n1C)c1ccccn1`, the GI50 in the experiment on MDA-MB-435 was 0.224 µM; in the experiment on DU-145 prostate, 0.127 µM; in the experiment on BT-549 breast, 0.243 µM; in the experiment with T-47D breast it was less than 0.01 µM; in the experiment with MDA-MB-231 breast, 0.14 µM. The TGI in the experiment with MDA-MB-435 was determined as 12.7 µM; in the experiment with DU-145 prostate, 12.7 µM; in the experiment with BT-549 breast, 12.8 µM; with T-47D breast it was 4.59 µM; in the experiment with MDA-MB-231 breast, 11.8 µM.
Regarding `O=S(=O)(NCCNc1nccc(-c2c(-c3cccc(O)c3)nc3sccn23)n1)c1ccc(F)cc1`, the GI50 with MDA-MB-435 is 0.939 µM; in the experiment on DU-145 prostate, 8.94 µM; in the experiment on BT-549 breast, 5.32 µM; in the experiment with T-47D breast, 6.54 µM; with MDA-MB-231 breast, 4.88 µM. The TGI with MDA-MB-435 amounted to 11.6 µM; in the experiment on DU-145 prostate it was 38.7 µM; in the experiment on BT-549 breast, 30 µM; with T-47D breast it was 25 µM; in the experiment on MDA-MB-231 breast, 44.8 µM.
Consider `Cn1cc(-c2csc(-c3c[nH]c4ncccc34)n2)c2cc(Br)cnc21`, for which the GI50 with MDA-MB-435 was 3.17 µM; in the experiment with DU-145 prostate, 3.51 µM; in the experiment with BT-549 breast it was 20.5 µM; with T-47D breast, 1.8 µM; in the experiment on MDA-MB-231 breast, 3.02 µM. In addition, the TGI with MDA-MB-435 was 32.8 µM; in the experiment on DU-145 prostate, greater than 100 µM; with BT-549 breast, greater than 100 µM; with T-47D breast, greater than 100 µM; in the experiment with MDA-MB-231 breast, greater than 100 µM.
With `N#Cc1ccc(Oc2nccc(-c3c(-c4ccc(F)cc4)ncn3C3CCNCC3)n2)cc1`, the GI50 in the experiment with MDA-MB-435 was greater than 15.1 µM; in the experiment with DU-145 prostate it was greater than 25 µM; in the experiment on BT-549 breast it was 24.9 µM; in the experiment with T-47D breast, greater than 25 µM; in the experiment on MDA-MB-231 breast, greater than 22.3 µM. Besides, the TGI with MDA-MB-435, in the experiment on DU-145 prostate, in the experiment on BT-549 breast, in the experiment with T-47D breast and with MDA-MB-231 breast was greater than 25 µM throughout.
As for `COc1cc2c(cc1OCCCCNC(=O)c1cc3ccccc3[nH]1)N=CC1CCCN1C2=O` (centres undefined), the GI50 in the experiment with MDA-MB-435 is 20.3 µM; in the experiment on DU-145 prostate, 5.31 µM; in the experiment on BT-549 breast, 8.79 µM; with T-47D breast it was 21.7 µM; in the experiment with MDA-MB-231 breast, 14.9 µM. Also, the TGI in the experiment with MDA-MB-435 is 74.6 µM; with DU-145 prostate, 69.8 µM; with BT-549 breast, 51.1 µM; with T-47D breast it was greater than 100 µM; in the experiment with MDA-MB-231 breast, 66.8 µM.
For the compound `CCCCCCN(CCCCCC)CCCNc1nccc2ccccc12`, the GI50 in the experiment on MDA-MB-435 was 1.57 µM; in the experiment with DU-145 prostate, 3.42 µM; in the experiment on BT-549 breast it was 1.79 µM; in the experiment with MDA-MB-231 breast it was 1.44 µM. Moreover, the TGI in the experiment on MDA-MB-435 is 3.06 µM; in the experiment on DU-145 prostate it was 11.9 µM; with BT-549 breast it was 3.47 µM; in the experiment on MDA-MB-231 breast, 2.91 µM.
Turning to `c1cncc(CNc2ccccc2-c2nnc(Nc3ccc4c(c3)OCO4)o2)c1`, the GI50 with DU-145 prostate was 0.197 µM; with BT-549 breast, 0.604 µM; in the experiment on T-47D breast it was 0.22 µM; in the experiment on MDA-MB-231 breast it was 0.343 µM. The TGI with DU-145 prostate, with BT-549 breast, in the experiment on T-47D breast and with MDA-MB-231 breast was greater than 100 µM in each case.
In the case of `O=C1Cc2cc(CCn3ccnc3)c(Cl)cc2N1`, the GI50 in the experiment with MDA-MB-435 was 3.12 µM; with DU-145 prostate, 8.02 µM; in the experiment on BT-549 breast it was 9.51 µM; in the experiment on T-47D breast, 75.6 µM; with MDA-MB-231 breast, 5.18 µM. In addition, the TGI is 15.2 µM in the experiment with MDA-MB-435; greater than 100 µM in the experiment on DU-145 prostate; greater than 100 µM in the experiment on BT-549 breast; greater than 100 µM in the experiment on T-47D breast; greater than 100 µM with MDA-MB-231 breast.
As to `O=C(CCCn1c2c(sc3ncccc32)c(=O)n2nnc(-c3ccccc3)c12)NCCc1cnc[nH]1`, the GI50 was 0.489 µM in the experiment on MDA-MB-435, 2.77 µM in the experiment with DU-145 prostate, 1.87 µM in the experiment with T-47D breast and 17.8 µM with MDA-MB-231 breast. The TGI with MDA-MB-435 was 20.5 µM; with DU-145 prostate it was 19.7 µM; in the experiment with T-47D breast, 21.6 µM; in the experiment on MDA-MB-231 breast, 34.6 µM.
In the case of `COC(=O)[C@]12CC[C@@H](C)[C@H](C)[C@@H]1C1=CC[C@@H]3[C@@]4(C)C[C@@H](OC(=O)c5ccco5)[C@H](O)[C@@](C)(CO)[C@@H]4[C@H](O)C[C@@]3(C)[C@]1(C)CC2`, the GI50 was 2.29 µM in the experiment with MDA-MB-435; 2.78 µM in the experiment with DU-145 prostate; 2.41 µM with BT-549 breast; 3.13 µM in the experiment on T-47D breast; 2.23 µM in the experiment on MDA-MB-231 breast. The TGI in the experiment with MDA-MB-435 was determined as 5.75 µM; with DU-145 prostate, 8.11 µM; in the experiment with BT-549 breast it was 5.21 µM; with T-47D breast it was 9.17 µM; in the experiment on MDA-MB-231 breast it was 4.8 µM.
For `CCCNc1nc(N(C)O)nc(N(C)O)n1`, the GI50 was 4.95 µM in the experiment on MDA-MB-435; 1.46 µM in the experiment on DU-145 prostate; 3.34 µM in the experiment on BT-549 breast; 3.9 µM with T-47D breast; 5.31 µM in the experiment with MDA-MB-231 breast. For the same compound, the TGI with MDA-MB-435 is greater than 100 µM; in the experiment with DU-145 prostate, greater than 30.1 µM; in the experiment on BT-549 breast, greater than 29.9 µM; in the experiment with T-47D breast, greater than 100 µM; in the experiment with MDA-MB-231 breast, greater than 100 µM.
